Activity calls are given as the source filed them. The rule behind the calls is not given here.
Assays:
[1] = biological target: Tubulin beta (Homo sapiens) (UniProt P68371+Q9H4B7+Q13509+P04350+Q3ZCM7+P07437+Q13885+Q9BVA1+Q9BUF5+A6NNZ2); assay: Binding affinity to beta-tubulin colchicine binding site in human KYSE-70 cells assessed as inhibition of EBI-beta-tubulin adduct band formation at 0 to 10 micromol/L preincubated for 2 hrs followed by EBI addition measured after 2 hrs by EBI competition based Western blotting analysis; assay type: cell-based; settings: dose 0-10 µmol/L, time 4.0 hrs
[2] = tested on: KYSE-70 cell line; assay: Induction of apoptosis in human KYSE-70 cells assessed as early apoptotic cells at 20 nmol/L incubated for 48 hrs by Annexin V-FITC/PI staining based flow cytometry analysis (reference value: 1.78%); assay type: functional
[3] = tested on: KYSE-30; assay: Induction of morphological changes in human KYSE-30 cells assessed as induction of fragmentation in nuclei at 5 to 20 nmol/L incubated for 48 hrs by DAPI staining based fluorescence microscopic analysis; assay type: functional, cell-based; settings: dose 5-20 nmol/L
[4] = tested on: KYSE-70 cell line; assay: Induction of apoptosis in human KYSE-70 cells assessed as early apoptotic cells at 10 nmol/L incubated for 48 hrs by Annexin V-FITC/PI staining based flow cytometry analysis (reference value: 1.78%); assay type: functional

Activity [1]: Active
SMILES: COc1ccc(-c2cnoc2-c2cc(C)nc3ccccc23)cc1
Activity [2]: 30.31%
Activity [3]: Active
Activity [4]: 28.93%

Source: ChEMBL document CHEMBL5608174, “Synthesis and biological evaluation of 4-phenyl-5-quinolinyl substituted isoxazole analogues as potent cytotoxic and tubulin polymerization inhibitors against ESCC” (Eur J Med Chem, 2024)
